Measurements: patent US20100311714A1, “1H-IMIDAZO[4,5-c]QUINOLINONE COMPOUNDS” (priority 2009, published 2010)

Assays:
PI3K alfa = molecular target: T1, PI3K alfa (Homo sapiens, UniProt P42336); experiment: PI3K alpha kinase assay (Kinase-Glo luminescence); assay type: biochemical; conditions: read-out: EPK_PI3Kalfa/IC50
T1 construct: His tag (C); made in house; host or cells: baculovirus BV1075; Tn5 (Trichoplusia ni) or TiniPro insect cells
Description: (§1) In a more preferred assay, the kinase reaction is performed in a final volume of 10 μL per well of a low volume non binding CORNING, 384 well black plate (Cat. No. #3676). The final concentrations of ATP and phosphatidyl inositol (PI) in the assay are 1 μM and 10 μg/mL respectively. The reaction is started by the addition of ATP.
(§2) The components of the assay are added per well as follows:
(§3) 50 nL test compounds in 90% DMSO per well, in columns 1-20, 8 concentrations (⅓ and 1/3.33 serial dilution step) in single. • Low control: […] of 90% DMSO in half the wells of columns 23-24 (0.45% in final). • High control: 50 nL of reference compound (e.g. compound of Example 7 in WO 2006/122806) in the other half of columns 23-24 (2.5 μM in final). • Standard: 50 nL of reference compound as just mentioned diluted as the test compounds in columns 21-22 • 20 mL ‘buffer’ are prepared per assay: • 200 μL of 1M TRIS HCl pH7.5 (10 mM in final) • 60 μL of 1M MgCl2 (3 mM in final) • 500 μL of 2M NaCl (50 mM in final) • 100 μL of 10% CHAPS (0.05% in final) • 200 μL of 100 mM DTT (1 mM in final) • 18.94 mL of nanopure water • 10 mL ‘PI’ are prepared per assay: • 200 μL of 1 mg/ml L-alpha-Phosphatidylinositol (Liver Bovine, Avanti Polar Lipids Cat. No. 840042C MW=909.12) prepared in 3% OctylGlucoside (10 μg/ml in final) • 9.8 mL of ‘buffer’ • 10 mL ‘ATP’ are prepared per assay: • 6.7 μL of 3 mM stock of ATP giving a final concentration of 1 μM per well • 10 mL of ‘buffer’ • 2.5 mL of each PI3K construct are prepared per assay in ‘PI’ with the following final concentration: • 10 nM PI3K alfa EMV B1075 • 25 nM beta EMV BV949 • 10 nM delta EMV BV1060 • 150 nM gamma EMV BV950 • 5 μL of ‘PI/PI3K’ are added per well. • 5 μl ‘ATP’ are added per well to start the reaction. • The plates are then incubated at room temperature for 60 minutes (alfa, beta, delta) or 120 minutes (gamma). • The reaction is terminated by the addition of 10 μL Kinase-Glo (Promega Cat. No. #6714). • The assay plates are read after 10 minutes in Synergy 2 reader (BioTek, Vermont USA) with an integration time of 100 milliseconds and sensitivity set to 191. • Output: The High control is around 60′000 counts and the Low control is 30′000 or lower • This luminescence assay gives a useful Z′ ratio between 0.4 and 0.7
Two different constructs, BV 1052 and BV 1075, are used to generate the PI3 Kinase α proteins for compound screening.
PI3K alpha is purified in three chromatographic steps: immobilized metal affinity chromatography on a Ni Sepharose resin (GE Healthcare, belonging to General Electric Company, Fairfield, Conn., USA), gel filtration utilizing a Superdex 200 26/60 column (GE Healthcare), and finally a cation exchange step on a SP-XL column (GE Healthcare). All buffers are chilled to 4° C. and lysis is performed chilled on ice. Column fractionation is performed rapidly at room temperature.
(§4) IC50 is determined by a four parameter curve fitting routine that comes along with “excel fit”. A 4 Parameter logistic equation is used to calculate IC50 values (IDBS XLfit) of the percentage inhibition of each compound at 8 concentrations (usually 10, 3.0, 1.0, 0.3, 0.1, 0.030, 0.010 and 0.003 μM). Alternatively, IC50 values are calculated using idbsXLfit model 204, which is a 4 parameter logistic model.

PI3K beta = molecular target: T2, PI3K beta (Homo sapiens, UniProt P42338); experiment: PI3K beta kinase assay (Kinase-Glo luminescence); assay type: biochemical; conditions: read-out: EPK_PI3Kbeta/IC50
T2 construct: for the full-length p110-b subunit are generated and fused by overlapping PCR; His tag (C); made in house; host or cells: baculovirus BV949; Tn5 (Trichoplusia ni) or TiniPro insect cells
Description: as §1, §2, §3
PI3Kβ BV-949 p85(iSH2)-Gly linker-r 110b(full-length)-C-term His Tag
PI3K beta is purified in two chromatographic steps: immobilized metal affinity chromatography (IMAC) on a Ni Sepharose resin (GE Healthcare) and gel filtration (GFC) utilizing a Superdex 200 26/60 column (GE Healthcare). All buffers are chilled to 4° C. and lysis is performed chilled on ice. Column fractionation is performed rapidly at room temperature.
as §4

PI3K delta = molecular target: T3, PI3K delta (Homo sapiens, UniProt O00329); experiment: PI3K delta kinase assay (Kinase-Glo luminescence); assay type: biochemical; conditions: read-out: EPK_PI3Kdelta/IC50
T3 construct: for the full-length p110-d subunit are generated and fused by overlapping PCR; His tag (C); made in house; host or cells: baculovirus BV1060; Tn5 (Trichoplusia ni) or TiniPro insect cells
Description: as §1, §2, §3
PI3Kδ BV-1060 p85(iSH2)-Gly Linker-p110d(Full-Length)-C-Term His Tag
PI3K delta is purified in three chromatographic steps: immobilized metal affinity chromatography on a Ni Sepharose resin (GE Healthcare), gel filtration utilizing a Superdex 200 26/60 column (GE Healthcare), and finally a anion exchange step on a Q-HP column (GE Healthcare). All buffers are chilled to 4° C. and lysis is performed chilled on ice. Column fractionation is performed rapidly at room temperature. Typically frozen insect cells are lysed in a hypertonic lysis buffer and applied to a prepared IMAC column. The resin is washed with 3-5 column volumes of lysis buffer, followed by 3-5 column volumes wash buffer containing 45 mM imidazole, and the target protein is then eluted with a buffer containing 250 mM imidazole. Fractions are analyzed by Coomassie stained SDS-PAGE gels, and fractions containing the target protein are pooled and applied to a prepared GFC column. Fractions from the GFC column are analyzed by Coomassie stained SDS-PAGE gels, and fractions containing the target protein are pooled. The pool from the GFC column is diluted into a low salt buffer and applied to a prepared Q-HP column. The column is washed with low salt buffer until a stable A280 baseline absorbance is achieved, and eluted using a 20 column volume gradient from 0 mM NaCl to 500 mM NaCl. Again, fractions from the Q-HP column are analyzed by Coomassie stained SDS-PAGE gels, and fractions containing the target protein are pooled. The final pool is dialyzed into a storage buffer containing 50% glycerol and stored at −20° C. The final pool is assayed for activity in the phosphoinostitol kinase assay. […]

mTOR = molecular target: T4, mTOR (Homo sapiens, UniProt P42345); experiment: Biochemical assay for m-TOR by TR-FRET; conditions: read-out: EPK_mTOR/IC50
T4 construct: purchased Invitrogen Corporation (Carlsbad/Calif., USA) PV4753
Description: Biochemical Assay for m-TOR by TR-FRET.
Assay components are purchased from Invitrogen Corporation (Carlsbad/Calif., USA): GFP-4EBP1 (Cat. No. PV4759), Tb3+-α-p4EBP1 [pThr46] Antibody (Cat. No. PV4757), proprietary TR-FRET dilution buffer (Cat. No. PV3574), mTOR protein (Cat. No. PV4753).
50 nL of compound dilutions (final concentration of 10, 3.0, 1.0, 0.3, 0.1, 0.03, 0.01 and 0.003 μM) are dispensed onto black 384-well low volume non-binding polystyrene (Cat. No. NBS#3676, Corning, Lowell/Mass., USA). Then 5 μL of ATP (8 μM final concentration) and GFP-4EBP1 (400 nM final concentration) with 5 μL mTOR proteins (0.5 nM final concentration) are incubated at rt. The standard reaction buffer for the TR-FRET mTOR assay contained 50 mM HEPES pH 7.5, 10 mM MnCl2, 50 mM NaCl, 1 mM EGTA, 1 mM DTT. Reactions were stopped with 10 μL of a mixture of EDTA containing the Tb3+-α-p4EBP1[pT46] detection Ab (0.5 nM) in TR-FRET dilution buffer (proprietary to IVG). Plates are read 15 mins later in a Synergy2 reader using an integration time of 0.2 seconds and a delay of 0.1 seconds. Control for the 100% inhibition of the kinase reaction is performed by replacing the mTOR kinase by the standard reaction buffer. The control for the 0% inhibition is given by the solvent vehicle of the compounds (90% DMSO in H2O). A standard compound is used as a reference compound and included in all assay plates in the form of 16 dilution points in duplicate.

T4 sequence (P42345 1360-2549 limits assumed): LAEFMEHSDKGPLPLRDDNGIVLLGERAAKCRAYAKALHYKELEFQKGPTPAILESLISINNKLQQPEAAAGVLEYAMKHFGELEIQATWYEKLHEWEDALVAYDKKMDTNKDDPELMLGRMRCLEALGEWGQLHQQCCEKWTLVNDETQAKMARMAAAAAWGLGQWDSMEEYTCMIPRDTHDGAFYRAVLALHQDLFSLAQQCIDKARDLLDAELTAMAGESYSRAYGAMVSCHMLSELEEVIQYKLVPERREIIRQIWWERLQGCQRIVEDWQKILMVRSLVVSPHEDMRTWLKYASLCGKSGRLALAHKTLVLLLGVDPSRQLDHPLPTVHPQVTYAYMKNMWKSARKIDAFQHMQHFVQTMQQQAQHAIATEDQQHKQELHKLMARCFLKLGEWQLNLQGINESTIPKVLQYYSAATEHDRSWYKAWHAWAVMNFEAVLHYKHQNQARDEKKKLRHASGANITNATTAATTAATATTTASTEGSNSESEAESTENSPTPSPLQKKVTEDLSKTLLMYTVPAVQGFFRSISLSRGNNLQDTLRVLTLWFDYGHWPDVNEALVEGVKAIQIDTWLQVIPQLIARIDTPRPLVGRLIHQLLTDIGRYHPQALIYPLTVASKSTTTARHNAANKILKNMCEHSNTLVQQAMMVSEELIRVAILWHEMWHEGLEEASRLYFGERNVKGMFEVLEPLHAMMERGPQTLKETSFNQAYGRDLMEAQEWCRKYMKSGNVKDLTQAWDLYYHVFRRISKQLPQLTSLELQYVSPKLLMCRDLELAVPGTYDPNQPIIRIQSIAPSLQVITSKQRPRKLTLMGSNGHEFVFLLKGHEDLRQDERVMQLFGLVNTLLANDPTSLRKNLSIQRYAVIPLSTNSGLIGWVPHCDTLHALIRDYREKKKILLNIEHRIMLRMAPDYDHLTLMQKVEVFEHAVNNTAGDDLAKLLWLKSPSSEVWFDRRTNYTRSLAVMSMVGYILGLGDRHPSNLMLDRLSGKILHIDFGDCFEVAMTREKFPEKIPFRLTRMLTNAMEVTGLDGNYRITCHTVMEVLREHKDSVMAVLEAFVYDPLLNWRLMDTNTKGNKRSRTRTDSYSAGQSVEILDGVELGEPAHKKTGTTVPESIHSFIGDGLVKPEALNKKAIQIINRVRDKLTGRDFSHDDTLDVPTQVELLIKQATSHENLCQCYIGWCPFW
T1 sequence (P42336 with tags, fused parts or gaps limits assumed): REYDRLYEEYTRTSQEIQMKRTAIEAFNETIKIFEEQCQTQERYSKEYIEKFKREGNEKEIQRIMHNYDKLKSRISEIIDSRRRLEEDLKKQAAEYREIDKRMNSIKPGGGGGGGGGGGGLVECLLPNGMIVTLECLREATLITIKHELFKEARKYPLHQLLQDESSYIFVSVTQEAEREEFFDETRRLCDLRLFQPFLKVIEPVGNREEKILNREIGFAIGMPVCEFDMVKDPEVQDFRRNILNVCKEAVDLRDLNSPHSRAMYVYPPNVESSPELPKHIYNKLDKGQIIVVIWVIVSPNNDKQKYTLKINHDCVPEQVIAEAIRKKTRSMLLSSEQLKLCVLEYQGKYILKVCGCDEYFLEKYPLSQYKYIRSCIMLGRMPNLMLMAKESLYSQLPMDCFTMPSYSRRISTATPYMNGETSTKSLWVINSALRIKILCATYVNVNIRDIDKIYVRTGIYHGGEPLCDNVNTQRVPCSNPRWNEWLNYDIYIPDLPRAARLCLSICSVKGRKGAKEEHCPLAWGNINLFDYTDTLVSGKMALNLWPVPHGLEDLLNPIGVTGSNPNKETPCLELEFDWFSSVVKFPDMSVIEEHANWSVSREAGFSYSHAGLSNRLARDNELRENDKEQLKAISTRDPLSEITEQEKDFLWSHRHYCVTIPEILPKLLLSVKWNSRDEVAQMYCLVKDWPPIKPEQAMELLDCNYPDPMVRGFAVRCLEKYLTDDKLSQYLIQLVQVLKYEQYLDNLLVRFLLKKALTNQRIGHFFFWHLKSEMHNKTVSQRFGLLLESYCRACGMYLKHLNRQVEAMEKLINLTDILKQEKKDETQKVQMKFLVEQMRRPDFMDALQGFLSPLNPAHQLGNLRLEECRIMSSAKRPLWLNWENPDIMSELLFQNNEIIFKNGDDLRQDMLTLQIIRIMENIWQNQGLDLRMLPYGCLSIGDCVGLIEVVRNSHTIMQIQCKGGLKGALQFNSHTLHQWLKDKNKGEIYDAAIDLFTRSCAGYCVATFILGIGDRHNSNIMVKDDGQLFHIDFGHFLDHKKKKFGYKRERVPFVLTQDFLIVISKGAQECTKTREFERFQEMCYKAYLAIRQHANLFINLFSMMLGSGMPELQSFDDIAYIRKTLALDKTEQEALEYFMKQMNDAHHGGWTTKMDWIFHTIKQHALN
T3 sequence (O00329 with tags, fused parts or gaps limits assumed): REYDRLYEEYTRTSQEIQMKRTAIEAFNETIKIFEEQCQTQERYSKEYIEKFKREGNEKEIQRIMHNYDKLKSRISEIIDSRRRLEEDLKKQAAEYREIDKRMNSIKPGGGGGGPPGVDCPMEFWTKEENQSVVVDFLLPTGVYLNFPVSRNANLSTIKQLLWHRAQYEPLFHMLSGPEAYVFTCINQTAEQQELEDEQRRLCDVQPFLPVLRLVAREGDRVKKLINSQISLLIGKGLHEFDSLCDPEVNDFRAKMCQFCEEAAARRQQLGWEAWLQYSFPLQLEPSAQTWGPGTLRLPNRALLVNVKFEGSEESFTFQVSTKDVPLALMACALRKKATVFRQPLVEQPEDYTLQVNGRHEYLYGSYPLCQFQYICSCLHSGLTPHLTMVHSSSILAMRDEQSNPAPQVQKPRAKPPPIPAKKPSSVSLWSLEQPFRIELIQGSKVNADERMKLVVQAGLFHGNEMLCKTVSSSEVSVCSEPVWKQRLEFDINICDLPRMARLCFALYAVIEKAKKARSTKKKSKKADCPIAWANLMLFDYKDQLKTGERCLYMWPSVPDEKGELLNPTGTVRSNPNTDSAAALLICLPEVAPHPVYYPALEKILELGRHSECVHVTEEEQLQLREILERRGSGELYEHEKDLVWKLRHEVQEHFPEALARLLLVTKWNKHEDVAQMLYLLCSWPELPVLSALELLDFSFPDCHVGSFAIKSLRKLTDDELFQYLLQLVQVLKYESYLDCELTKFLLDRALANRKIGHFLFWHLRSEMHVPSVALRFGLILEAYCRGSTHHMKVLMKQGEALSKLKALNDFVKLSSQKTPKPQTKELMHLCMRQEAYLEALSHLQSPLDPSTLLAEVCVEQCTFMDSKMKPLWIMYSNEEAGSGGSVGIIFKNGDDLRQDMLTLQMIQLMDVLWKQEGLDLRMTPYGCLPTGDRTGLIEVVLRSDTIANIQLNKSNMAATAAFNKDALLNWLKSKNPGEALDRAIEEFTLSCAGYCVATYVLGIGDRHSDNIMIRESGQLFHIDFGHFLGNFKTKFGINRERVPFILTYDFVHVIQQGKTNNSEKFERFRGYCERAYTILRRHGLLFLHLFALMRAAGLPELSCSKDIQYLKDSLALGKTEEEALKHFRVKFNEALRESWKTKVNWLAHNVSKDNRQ
T2 sequence (P42338 with tags, fused parts or gaps limits assumed): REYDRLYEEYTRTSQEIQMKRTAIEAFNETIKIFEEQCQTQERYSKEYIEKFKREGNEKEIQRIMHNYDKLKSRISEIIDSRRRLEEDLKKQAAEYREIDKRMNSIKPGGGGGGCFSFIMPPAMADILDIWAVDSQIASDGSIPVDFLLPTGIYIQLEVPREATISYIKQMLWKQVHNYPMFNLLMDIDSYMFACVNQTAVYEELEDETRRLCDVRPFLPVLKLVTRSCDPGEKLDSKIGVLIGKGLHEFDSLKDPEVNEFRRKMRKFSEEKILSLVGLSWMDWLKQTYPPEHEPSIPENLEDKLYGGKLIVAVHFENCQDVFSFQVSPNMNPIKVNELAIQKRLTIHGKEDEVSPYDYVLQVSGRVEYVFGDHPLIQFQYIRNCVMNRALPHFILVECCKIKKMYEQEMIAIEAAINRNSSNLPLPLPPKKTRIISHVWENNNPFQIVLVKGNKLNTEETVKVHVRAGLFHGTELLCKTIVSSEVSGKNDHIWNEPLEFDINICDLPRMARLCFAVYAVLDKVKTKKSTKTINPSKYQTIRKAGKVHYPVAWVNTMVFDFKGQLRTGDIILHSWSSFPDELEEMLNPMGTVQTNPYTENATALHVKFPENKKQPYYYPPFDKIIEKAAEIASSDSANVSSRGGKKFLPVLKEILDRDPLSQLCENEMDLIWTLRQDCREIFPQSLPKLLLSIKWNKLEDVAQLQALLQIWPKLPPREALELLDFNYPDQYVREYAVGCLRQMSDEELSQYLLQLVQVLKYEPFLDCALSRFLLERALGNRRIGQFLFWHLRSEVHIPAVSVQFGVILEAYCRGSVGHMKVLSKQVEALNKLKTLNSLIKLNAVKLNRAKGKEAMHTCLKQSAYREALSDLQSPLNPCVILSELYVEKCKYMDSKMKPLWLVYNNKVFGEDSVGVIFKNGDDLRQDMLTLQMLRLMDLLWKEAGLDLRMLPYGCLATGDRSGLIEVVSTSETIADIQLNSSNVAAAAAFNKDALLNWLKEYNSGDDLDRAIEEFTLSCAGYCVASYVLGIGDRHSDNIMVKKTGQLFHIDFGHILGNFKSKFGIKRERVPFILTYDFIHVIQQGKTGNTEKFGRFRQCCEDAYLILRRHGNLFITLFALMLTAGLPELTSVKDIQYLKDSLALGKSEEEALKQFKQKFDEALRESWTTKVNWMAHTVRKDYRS

IC50 (PI3K alfa) [nM] | IC50 (PI3K beta) [nM] | IC50 (PI3K delta) [nM] | IC50 (mTOR) [nM] | Compound
27 | 385 | 21 | 21 | CCNc1ncc(-c2ccc3ncc4c(c3c2)n(-c2ccc(N3CC[C@H](O)C3)nc2C)c(=O)n4C)c(OC)n1 [Example 32.9, 8-(2-Ethylamino-4-methoxy-pyrimidin-5-yl)-1-[6-((S)-3-hydroxy-pyrrolidin-1-yl)-2-methyl-pyridin-3-yl]-3-methyl-1,3-dihydro-imidazo[4,5-c]quinolin-2-one]
65 | 321 | 28 | 36 | CCNc1ncc(-c2ccc3ncc4c(c3c2)n(-c2ccc(F)nc2C)c(=O)n4C)cn1 [Example 7.18, 8-(2-Ethylamino-pyrimidin-5-yl)-1-(6-fluoro-2-methyl-pyridin-3-yl)-3-methyl-1,3-dihydro-imidazo[4,5-c]quinolin-2-one]
